Measurements as given in US9796711B2, “Substituted pyrazolo[3,4-b]pyridin-6-carboxylic acids and method of use” (AbbVie S.àr.l., priority 2015, dated 2017).

Columns and labels:
[1] = molecular target: T1, ΔF508-CFTR (Homo sapiens, UniProt P13569, DEL508-508); assay: CFTR cell surface levels using HRP-tagged ΔF508-CFTR expressing CFBE cells, in the presence of a co-corrector; type: cell-based
T1 construct: host or cells: CFBE41o-, doxycycline-inducible
Outline: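 Cells were seeded with 0.5 μg/mL doxycycline and held 68 h at 37 °C. Test compounds plus 3 μM co-corrector (final 0.1% DMSO) were then added for 20 h at 33 °C. Washed cells received HRP substrate, and luminescence was normalized between DMSO and 3 μM co-corrector controls.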

[2] = molecular target: T1, ΔF508-CFTR; assay: CFTR cell surface levels using HRP-tagged ΔF508-CFTR expressing CFBE cells, intrinsic corrector capacity; type: cell-based
Outline: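 Here the cells express ΔF508-CFTR with horseradish peroxidase inserted in extracellular loop 4, so only rescued channel at the surface gives luminescent signal. Compounds act on their own, 20 h at the reduced temperature of 33 °C; values are percent activity relative to DMSO and a 3 μM corrector.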

[3] = HRP-tagged ΔF508-CFTR expressing CFBE cells, in the presence of 3 μM co-corrector
[4] = HRP-tagged ΔF508-CFTR expressing CFBE cells, in the presence of 3 μM co-corrector, read-out: EC50
[5] = HRP-tagged ΔF508-CFTR CFBE41o- cells, compounds alone (intrinsic corrector capacity), 20 hours at 33° C., positive control 3 μM corrector
[6] = HRP-tagged ΔF508-CFTR CFBE41o- cells, compounds alone (intrinsic corrector capacity), 20 hours at 33° C., read-out: EC50
[7] = HRP-tagged ΔF508-CFTR expressing CFBE cells, intrinsic corrector capacity (no co-corrector), 33° C., 20 hours
[8] = HRP-tagged ΔF508-CFTR expressing CFBE cells, intrinsic corrector capacity (no co-corrector), 33° C., 20 hours, read-out: EC50

T1 sequence (P13569 with tags, fused parts or gaps DEL508-508): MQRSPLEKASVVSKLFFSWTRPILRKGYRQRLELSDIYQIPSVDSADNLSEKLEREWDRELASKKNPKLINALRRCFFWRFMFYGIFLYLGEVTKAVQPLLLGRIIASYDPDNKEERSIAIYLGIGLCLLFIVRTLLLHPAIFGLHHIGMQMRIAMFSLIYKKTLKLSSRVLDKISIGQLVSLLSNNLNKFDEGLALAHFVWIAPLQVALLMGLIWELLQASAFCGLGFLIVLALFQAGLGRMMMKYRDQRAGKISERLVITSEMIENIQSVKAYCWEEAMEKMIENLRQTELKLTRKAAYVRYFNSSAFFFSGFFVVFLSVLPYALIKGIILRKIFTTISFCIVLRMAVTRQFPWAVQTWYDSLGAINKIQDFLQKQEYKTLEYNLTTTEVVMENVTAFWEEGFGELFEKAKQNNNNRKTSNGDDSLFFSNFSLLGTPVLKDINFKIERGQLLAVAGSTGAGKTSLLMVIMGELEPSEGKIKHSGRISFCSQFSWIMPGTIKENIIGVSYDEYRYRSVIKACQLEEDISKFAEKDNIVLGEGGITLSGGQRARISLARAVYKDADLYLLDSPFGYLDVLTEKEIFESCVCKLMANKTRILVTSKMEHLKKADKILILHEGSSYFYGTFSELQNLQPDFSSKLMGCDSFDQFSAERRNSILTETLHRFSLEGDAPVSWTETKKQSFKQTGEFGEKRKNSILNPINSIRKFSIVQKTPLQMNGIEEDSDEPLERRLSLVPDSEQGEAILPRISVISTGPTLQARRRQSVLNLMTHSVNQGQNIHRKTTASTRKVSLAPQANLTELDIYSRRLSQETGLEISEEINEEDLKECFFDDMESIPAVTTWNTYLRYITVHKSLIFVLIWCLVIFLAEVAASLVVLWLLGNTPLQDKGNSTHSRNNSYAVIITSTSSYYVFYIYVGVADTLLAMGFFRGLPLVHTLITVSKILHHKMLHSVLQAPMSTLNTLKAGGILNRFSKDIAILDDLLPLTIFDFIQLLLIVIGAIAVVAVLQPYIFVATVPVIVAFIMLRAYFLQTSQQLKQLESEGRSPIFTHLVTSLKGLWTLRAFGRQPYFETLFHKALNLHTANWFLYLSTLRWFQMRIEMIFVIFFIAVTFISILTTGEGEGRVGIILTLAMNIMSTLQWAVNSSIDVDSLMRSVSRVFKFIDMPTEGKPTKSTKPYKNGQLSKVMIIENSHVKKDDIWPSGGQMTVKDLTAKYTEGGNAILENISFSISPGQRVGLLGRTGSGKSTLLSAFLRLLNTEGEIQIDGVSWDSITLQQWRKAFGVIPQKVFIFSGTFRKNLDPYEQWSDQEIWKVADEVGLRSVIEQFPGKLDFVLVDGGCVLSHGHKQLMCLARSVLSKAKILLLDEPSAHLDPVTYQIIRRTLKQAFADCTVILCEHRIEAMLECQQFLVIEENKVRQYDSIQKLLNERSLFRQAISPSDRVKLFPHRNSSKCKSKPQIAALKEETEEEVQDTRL

Row | SMILES | % Activation [1, 3] [%] | EC50 [1, 4] [nM] | % Activation [2, 5] [%] | EC50 [2, 6] [nM] | % Activation [2, 7] [%] | EC50 [2, 8] [nM] | EC50 [1] [nM] | EC50 [2] [nM]
1 | CC(C)c1nn(-c2cc(F)cc(F)c2)c2nc(C(=O)O)cc(-c3ccc(N4CCOCC4)cc3)c12 [compound 268, 1-(3,5-difluorophenyl)-4-[4-(morpholin-4-yl)phenyl]-3-(propan-2-yl)-1H-pyrazolo[3,4-b]pyridine-6-carboxylic acid] | 425.68 | 394 | 251.82 | 616 |  |  |  | 
2 | O=C(O)c1cc(N2CCC(CCN3CCOCC3)CC2)c2c(C3CCC3)nn(-c3ccc(F)cc3)c2n1 [compound 810, 3-cyclobutyl-1-(4-fluorophenyl)-4-{4-[2-(morpholin-4-yl)ethyl]piperidin-1-yl}-1H-pyrazolo[3,4-b]pyridine-6-carboxylic acid] | 468.7 | 88.4 |  |  | 277.6 | 204 |  | 
3 | Cc1cccc(-n2nc(C(C)C)c3c(N4CCC(C#N)CC4)cc(C(=O)O)nc32)c1 [compound 191, 4-(4-cyanopiperidin-1-yl)-1-(3-methylphenyl)-3-(propan-2-yl)-1H-pyrazolo[3,4-b]pyridine-6-carboxylic acid] | 375.1 | 481 | 208.12 | 998 |  |  |  | 
4 | O=C(O)c1cc(N2CCC(CCN3CCOCC3)CC2)c2c(C3CCC3)nn(-c3ccccc3)c2n1 [compound 575, 3-cyclobutyl-4-{4-[2-(morpholin-4-yl)ethyl]piperidin-1-yl}-1-phenyl-1H-pyrazolo[3,4-b]pyridine-6-carboxylic acid] | 431.9 |  |  |  | 268.4 |  | 209 | 512
5 | COCC1CCN(c2cc(C(=O)O)nc3c2c(C(C)C)nn3-c2cccc(C)c2)CC1 [compound 227, 4-[4-(methoxymethyl)piperidin-1-yl]-1-(3-methylphenyl)-3-(propan-2-yl)-1H-pyrazolo[3,4-b]pyridine-6-carboxylic acid] | 452.6 | 340 | 305.45 | 666 |  |  |  | 
6 | COC1CCN(c2cc(C(=O)O)nc3c2c(C(C)C)nn3-c2cccc(C)c2)CC1 [compound 192, 4-(4-methoxypiperidin-1-yl)-1-(3-methylphenyl)-3-(propan-2-yl)-1H-pyrazolo[3,4-b]pyridine-6-carboxylic acid] | 439.45 | 274 | 276.92 | 424 |  |  |  | 
7 | O=C(O)c1cc(N2CCC(N3CCOCC3)CC2)c2c(C3CCC3)nn(-c3cccc(OC(F)F)c3)c2n1 [compound 910, 3-cyclobutyl-1-[3-(difluoromethoxy)phenyl]-4-[4-(morpholin-4-yl)piperidin-1-yl]-1H-pyrazolo[3,4-b]pyridine-6-carboxylic acid] | 499.9 | 79.1 |  |  | 286.2 | 187 |  | 
8 | CC(C)c1nn(-c2ccc(F)cc2)c2nc(C(=O)O)cc(N3CCC(C(C)(C)O)CC3)c12 [compound 656, 1-(4-fluorophenyl)-4-[4-(2-hydroxypropan-2-yl)piperidin-1-yl]-3-(propan-2-yl)-1H-pyrazolo[3,4-b]pyridine-6-carboxylic acid] | 415.7 | 191 |  |  | 287.7 | 437 |  | 
9 | O=C(O)c1cc(N2CCC(CN3CCCC3)CC2)c2c(C3CCC3)nn(-c3ccccc3)c2n1 [compound 557, 3-cyclobutyl-1-phenyl-4-{4-[(pyrrolidin-1-yl)methyl]piperidin-1-yl}-1H-pyrazolo[3,4-b]pyridine-6-carboxylic acid] | 418.2 | 200 |  |  | 221.7 | 444 |  | 
10 | CN1CCC2(CC1)CCN(c1cc(C(=O)O)nc3c1c(C1CCC1)nn3-c1ccccc1)CC2 [compound 699, 3-cyclobutyl-4-(9-methyl-3,9-diazaspiro[5.5]undecan-3-yl)-1-phenyl-1H-pyrazolo[3,4-b]pyridine-6-carboxylic acid] | 432 | 169 |  |  | 247.63 | 622 |  | 
11 | COCCN1CCC2(CC1)CCN(c1cc(C(=O)O)nc3c1c(C1CCC1)nn3-c1ccc(F)cc1)CC2 [compound 897, 3-cyclobutyl-1-(4-fluorophenyl)-4-[9-(2-methoxyethyl)-3,9-diazaspiro[5.5]undecan-3-yl]-1H-pyrazolo[3,4-b]pyridine-6-carboxylic acid] | 354.93 | 186 |  |  | 151.25 | 348 |  | 
12 | CC(C)c1nn(-c2cccc(N3CCOCC3)c2)c2nc(C(=O)O)cc(-c3ccc(N(C)C)nc3)c12 [compound 89, 4-[6-(dimethylamino)pyridin-3-yl]-1-[3-(morpholin-4-yl)phenyl]-3-(propan-2-yl)-1H-pyrazolo[3,4-b]pyridine-6-carboxylic acid] | 482.05 | 1240 | 310.15 | 2530 |  |  |  | 
13 | N#CC1CCN(c2ccc(-c3cc(C(=O)O)nc4c3c(C3CCC3)nn4C3CCCCC3)cn2)CC1 [compound 220, 4-[6-(4-cyanopiperidin-1-yl)pyridin-3-yl]-3-cyclobutyl-1-cyclohexyl-1H-pyrazolo[3,4-b]pyridine-6-carboxylic acid] | 470.77 | 369 | 245.37 | 786 |  |  |  | 
14 | O=C(O)c1cc(N2CCC(N3CCOCC3)CC2)c2c(C3CCC3)nn(-c3ccccc3)c2n1 [compound 560, 3-cyclobutyl-4-[4-(morpholin-4-yl)piperidin-1-yl]-1-phenyl-1H-pyrazolo[3,4-b]pyridine-6-carboxylic acid] | 437.33 |  |  |  | 265.05 |  | 171 | 393
15 | CC(C)c1nn(-c2ccc(F)cc2)c2nc(C(=O)O)cc(N3CCC(N4CCN(C5CC5)CC4)CC3)c12 [compound 754, 4-[4-(4-cyclopropylpiperazin-1-yl)piperidin-1-yl]-1-(4-fluorophenyl)-3-(propan-2-yl)-1H-pyrazolo[3,4-b]pyridine-6-carboxylic acid] | 467.3 | 153 |  |  | 254.1 | 385 |  | 
16 | CN(C)C[C@@H](F)C1CCN(c2cc(C(=O)O)nc3c2c(C2CCC2)nn3-c2ccccc2)CC1 [compound 456, 3-cyclobutyl-4-{4-[(1S)-2-(dimethylamino)-1-fluoroethyl]piperidin-1-yl}-1-phenyl-1H-pyrazolo[3,4-b]pyridine-6-carboxylic acid] | 414.5 | 335 |  |  | 253.65 | 845 |  | 
17 | COC1CCN(C2CCN(c3cc(C(=O)O)nc4c3c(C3CCC3)nn4-c3ccc(F)cc3)CC2)CC1 [compound 892, 3-cyclobutyl-1-(4-fluorophenyl)-4-(4-methoxy[1,4′-bipiperidin]-1′-yl)-1H-pyrazolo[3,4-b]pyridine-6-carboxylic acid] | 428.72 | 602 |  |  | 196.44 | 603 |  | 
18 | CC(C)c1nn(-c2cccc(N3CCOCC3)n2)c2nc(C(=O)O)cc(-c3ccc(N4CCOCC4)cc3)c12 [compound 244, 4-[4-(morpholin-4-yl)phenyl]-1-[6-(morpholin-4-yl)pyridin-2-yl]-3-(propan-2-yl)-1H-pyrazolo[3,4-b]pyridine-6-carboxylic acid] | 514.48 | 458 | 320.17 | 473 |  |  |  | 
19 | O=C(O)c1cc(N2CCC3(CC2)CCN(C2CCC2)CC3)c2c(C3CCC3)nn(-c3ccc(F)cc3)c2n1 [compound 894, 3-cyclobutyl-4-(9-cyclobutyl-3,9-diazaspiro[5.5]undecan-3-yl)-1-(4-fluorophenyl)-1H-pyrazolo[3,4-b]pyridine-6-carboxylic acid] | 371.3 | 218 |  |  | 164 | 304 |  | 
20 | O=C(O)c1cc(N2CCC(N3CCC(O)CC3)CC2)c2c(C3CCC3)nn(-c3ccc(F)cc3)c2n1 [compound 898, 3-cyclobutyl-1-(4-fluorophenyl)-4-(4-hydroxy[1,4′-bipiperidin]-1′-yl)-1H-pyrazolo[3,4-b]pyridine-6-carboxylic acid] | 393.6 | 3330 |  |  | 231.6 | 3240 |  | 
21 | CO[C@@H]1CCN(CC2CCN(c3cc(C(=O)O)nc4c3c(C3CCC3)nn4-c3ccccc3)CC2)C1 [compound 803, 3-cyclobutyl-4-(4-{[(3R)-3-methoxypyrrolidin-1-yl]methyl}piperidin-1-yl)-1-phenyl-1H-pyrazolo[3,4-b]pyridine-6-carboxylic acid] | 436 | 672 |  |  | 229.35 | 1020 |  | 
22 | COCCN1CCN(c2ccc(-c3cc(C(=O)O)nc4c3c(C3CCC3)nn4C3CCCCC3)cn2)CC1 [compound 878, 3-cyclobutyl-1-cyclohexyl-4-{6-[4-(2-methoxyethyl)piperazin-1-yl]pyridin-3-yl}-1H-pyrazolo[3,4-b]pyridine-6-carboxylic acid] | 391.3 | 99.6 |  |  | 181.05 | 221 |  | 
